Data: patent US20260325489A1, “PHARMACEUTICAL COMPOSITIONS COMPRISING 5-METHOXY-N,N-DIMETHYLTRYPTAMINE (5-MEO-DMT)” (Beckley Psytech Limited, priority 2023, published 2026)
Entries after “also recorded” stand apart in the source; their conditions may differ.

Assays:
[1] = physical stability / hygroscopicity of salts and formulations
[2] = Phase 1 single ascending dose study of intranasal 5-MeO-DMT HCl in healthy subjects; assay type: in vivo; settings: human plasma
Description: (§1) The applicant has funded double-blind, randomised, Phase 1, single ascending dose studies to evaluate the safety, tolerability and pharmacokinetic profile of intranasal 5-MeO-DMT hydrochloride and intranasal 5-MeO-DMT benzoate in healthy subjects. […] It is desirable that a compound for use in treatment has dose-proportional pharmacokinetics, for example, to facilitate dose and dose regimen adjustment in patients. In an embodiment, there is provided a salt of 5-MeO-DMT with dose-proportional pharmacokinetics, optionally for use in the methods disclosed herein. In an embodiment, the salt of 5-MeO-DMT with dose-proportional pharmacokinetics is the benzoate or HBr salt, optionally the benzoate salt. A double-blind, randomised, Phase 1, single ascending dose study to evaluate the safety, tolerability and pharmacokinetic profile of a liquid intranasal 5-MeO-DMT HCl (5-MeO-DMT HCl, HPMC, water for injection (WFI) and a sodium hydroxide solution to adjust pH) pharmaceutical composition/formulation in healthy subjects was performed.

[3] = dissolution rate (UV-fibre optic dissolution apparatus, simulated nasal fluid); assay type: physicochemical
Procedure: The dissolution rate of SDD was determined using a method comprising the use of a UV-fibre optic-based dissolution apparatus (one such suitable device is the Rainbow® Dynamic Dissolution Monitor by Pion Inc) and simulated nasal fluid. The simulated nasal fluid comprises 7.45 g/L NaCl, 1.29 g/L KCl, 0.32 g/L CaCl2)×2H2O and deionised water.

[4] = solid state by XRPD and DSC; assay type: physicochemical; settings: XRPD and/or DSC, after spray drying or lyophilisation
Procedure: Unless otherwise stated herein all X-ray powder diffractograms (XRPD) were generated using an X-ray wavelength of 1.5406 Å; all modulated differential scanning calorimetry (DSC) thermograms were generated using a 2 °C/min heating rate.

[5] = assay type: in vivo, human (healthy subjects)
Description: as §1
A double-blind, randomised, Phase 1, single ascending dose study to evaluate the safety, tolerability and pharmacokinetic profile of intranasal 5-MeO-DMT benzoate in healthy subjects was performed.

[6] = thermal decomposition properties of salt forms (TGA); assay type: physicochemical
Description: The thermal decomposition properties of a range of salt forms of 5-MeO-DMT has been investigated and is summarised in the report below: […]

COc1ccc2[nH]cc(CCN(C)C)c2c1.Cl [5-MeO-DMT HCl]
stability profile, in words [1]: issues relating to stability, discoloration and a reduction in desirable pharmacokinetic properties | mean concentration profiles ([2]; 5 mg, 8 mg, 10 mg, 11 mg and 14 mg): substantially similar | dose-proportional pharmacokinetics ([2]; liquid intranasal HCl formulation, 5, 8, 10, 11 and 14 mg): does not display dose-proportional pharmacokinetics

COc1ccc2[nH]cc(CCN(C)C)c2c1.O=C(O)c1ccccc1 [5-MeO-DMT benzoate]
dissolution rate / profile, in words [3]: almost instantaneous dissolution rate; also recorded: a reduced dissolution rate as compared to the amorphous form of 5-MeO-DMT salts | physical / state stability, in words [1]: storage at 2-8° C., and protection from moisture, prevents recrystallisation and aggregation; also recorded: stable crystalline spray dried dispersion particle with no respirable API fines or significant aggregation | stability profile, in words [1]: good stability profile | solid state of the dispersion produced [4]: amorphous dispersion with no sign of the crystalline benzoate salt | mean Cmax ([5]; intranasal, 12 mg dosage, human plasma): 29 ng/mL | mean Tmax ([5]; intranasal, human plasma): 9.5 min | mass loss [6]: full mass loss | temperature at which decomposition starts [6]: ~220 °C

Br.COc1ccc2[nH]cc(CCN(C)C)c2c1 [5-MeO-DMT hydrobromide]
physical / state stability, in words [1]: stable amorphous dispersion without the need for any additional drying step post spray drying; also recorded: state-stable when stored at above the temperature range 2-8 °C | temperature at which gross decomposition starts [6]: Melt 149 °C, gross decomp starts 220 °C

C1=Cc2cccc(OC[C@H]3CNCCO3)c2C1.O=S(=O)(O)c1ccccc1 [Benzenesulfonate]
temperature at which gross decomposition starts [6]: Melt 76 °C, gross decomp starts 280 °C

CN(C)CCc1c[nH]c2ccc(O)cc12 [Bufotenin]
detection of O-demethylated metabolite (Bufotenin) ([5]; 6 mg dose level of intranasal 5-MeO-DMT benzoate, after the 16 minutes time point): only detected at very low levels

O=C(O)CCC(=O)C(=O)O [Ketoglutarate]
temperature at which gross decomposition starts [6]: Melt 85 °C, gross decomp starts 170 °C

O=C(O)CC(O)C(=O)O (centres unmarked) [Malate]
temperature at which gross decomposition starts [6]: Melt 100 °C, gross decomp starts 250 °C

O=C(O)C(O)C(O)C(=O)O (centres unmarked) [Tartrate]
decomposition temperature [6]: Melt ~140 °C, decomp ~200 °C

Fumarate
decomposition temperature [6]: Decomp around 200 °C

Glycolate
temperature at which gross decomposition starts [6]: Melt 95 °C, gross decomp starts 170 °C

Oxalate
mass loss [6]: Melts 176 °C, full mass loss

Phosphate
decomposition temperature [6]: Decomp around 200 °C

Tosylate
temperature at which gross decomposition starts [6]: Melt 110 °C, gross decomp starts 280 °C
